Source: PMC11052316, “New Transferrin Receptor-Targeted Peptide–Doxorubicin Conjugates: Synthesis and In Vitro Antitumor Activity” (Molecules, 2024)
Like-named read-outs stand apart in the source and are kept apart here. Square brackets hold non-standard residues; d marks the D form. Peptide text beside a SMILES is read from it. * marks the point of attachment. X1 = COc1cccc2c1C(=O)c1c(O)c3c(c(O)c1C2=O)C[C@@](O)(C(=O)CO)C[C@@H]3O[C@H]1C[C@H](NC(=O)CCS*)[C@H](O)[C@H](C)O1

Key:
LO2 cells [1] = test: Confocal microscopy analysis of cellular uptake; assay type: cell-based, human; conditions: LO2, 10 μM, 4 h, confocal laser scanning microscopy
Protocol: (§1) A549, HepG2, U87, or LO2 cells were seeded on glass coverslips (5 × 10^4 cells/well) in 24-well cell culture plates and incubated at 37 °C for 24 h. Then, cells were treated with the peptide–DOX conjugates (equivalent DOX concentration of 10 μM) for 4 and 12 h, respectively. Cells treated with free DOX (10 μM) for 4 h were used as the positive control. After the drugs in each well were discarded, cells were washed three times with PBS and fixed with 4% paraformaldehyde for 12 h. Cell nuclei were stained with DAPI for 8 min. The fluorescent images of cells were observed by using a confocal laser scanning microscope (Olympas FV3000).

LO2 cells [2] = test: In vitro cytotoxicity, CCK-8 assay; assay type: cell-based, human; conditions: LO2, 48 h, CCK-8, mean ± SD (n = 3)
Protocol: (§2) Human HepG2 hepatocellular carcinoma cells and human U87 glioblastoma cells were purchased from Procell Life Science & Technology Co., Ltd. (Wuhan, China), human A549 lung carcinoma cells were obtained from the School of Basic Medical Sciences, Chengde Medical University, human LO2 normal hepatic cells were purchased from Jennio Biotech Co., Ltd. (Guangzhou, China). The cells were cultured in DMEM (HepG2), MEM containing 1% non-essential amino acids (U87), and RPMI-1640 (A549 and LO2), supplemented with 10% fetal bovine serum (FBS) and 1% penicillin/streptomycin at 37 °C in a humidified atmosphere with 5% CO2.
(§3) A549, HepG2, U87, and LO2 cells were each seeded in 96-well cell culture plates at a density of 6 × 10^3 cells per well and incubated at 37 °C for 24 h. Then, cells were treated with serial concentrations of free DOX or the peptide–DOX conjugates for 48 h. After incubation, CCK-8 (10 μL) was added to each well and incubated for an additional 2 h. The absorbance of each well was measured at 450 nm with a reference wavelength of 630 nm by using a Multiskan GO microplate reader (Thermo Fisher Scientific, Waltham, MA, USA). Data for each cell line treated with free DOX or PDCs were obtained from three independent experiments.

U87 cells [3] = test: In vitro cytotoxicity, CCK-8 assay; assay type: cell-based, human; conditions: for IC50: U87, 48 h, CCK-8, mean ± SD (n = 3); for cell viability: 48 h, CCK-8
Protocol: as §2, §3

HepG2 cells [4] = test: Confocal microscopy analysis of cellular uptake; assay type: cell-based, human
Protocol: as §1
(§4) After removal of the peptide solution, cells were washed three times with PBS and incubated with the ^DT7-SS-DOX conjugate (equivalent DOX concentration of 10 μM) for 4 h. Cell fixation, staining, and cellular uptake analysis by confocal microscopy were conducted as aforementioned methods.

A549 cells [5] = test: Confocal microscopy analysis of cellular uptake; assay type: cell-based, human
Protocol: as §1, §4

U87 cells [6] = test: Confocal microscopy analysis of cellular uptake; assay type: cell-based, human
Protocol: as §1, §4

[7] = Reduction-triggered degradation / drug release by GSH; assay type: physicochemical; conditions: 37 °C; for remaining at 1 h, 100 µM: read-out: conjugate remained undegraded; for t1/2 of degradation in 5 mM GSH: intact conjugate by HPLC, mean ± SD
Protocol: A stock solution of ^LT7-SS-DOX or ^DT7-SS-DOX was diluted by adding 5 mM or 5 μM GSH dissolved in acetonitrile-PBS (3:7, v/v) to a final volume of 800 μL with 100 μM conjugate, and the mixture was incubated at 37 °C. Aliquots (100 μL) were taken from the incubation solution at scheduled time intervals and diluted with acetonitrile–PBS (3:7, v/v, 200 μL). After filtration, the intact conjugate that remained in the sample was analyzed by HPLC.

HepG2 cells [8] = test: In vitro cytotoxicity, CCK-8 assay; assay type: cell-based, human; conditions: for cell viability: 48 h, CCK-8
Protocol: as §2, §3

A549 cells [9] = test: In vitro cytotoxicity, CCK-8 assay; assay type: cell-based, human; conditions: for cell viability: 48 h, CCK-8
Protocol: as §2, §3

[10] = In vitro stability of conjugates in mouse serum; assay type: in vitro ADME; conditions: 37 °C; for half-life at 100 µM: mouse serum (200 µL in 800 µL, diluted with water), 80 μL of 1 mM conjugate stock + 520 μL ultra-pure water + 200 μL mouse serum, methanol quench, centrifugation, intact PDC by HPLC (C18, 254 nm), mean ± SD, read-out: t1/2 of degradation in mouse serum (converted)
Protocol: The in vitro stability experiment of the conjugates was conducted by co-incubation with mouse serum, as previously described, with minor modifications. An 80 μL of ^LT7-SS-DOX or ^DT7-SS-DOX stock solution (1 mM) was diluted by adding ultra-pure water (520 μL) and mouse serum (200 μL). The mixture was incubated at 37 °C, aliquots (100 μL) were taken at scheduled time intervals, and then methanol (300 μL) was added to terminate the incubation. After centrifugation at 10,000 rpm for 10 min, the intact PDC that remained in the supernatant was analyzed by HPLC.

[11] = 5 mM GSH in acetonitrile-PBS (3:7, v/v), 100 μM conjugate, 1 h, HPLC, n = 3
[12] = 5 mM GSH in acetonitrile-PBS (3:7, v/v), 100 μM conjugate, n = 3

COc1cccc2c1C(=O)c1c(O)c3c(c(O)c1C2=O)C[C@@](O)(C(=O)CO)C[C@@H]3O[C@H]1C[C@H](N)[C@H](O)[C@H](C)O1 [DOX, Doxorubicin]
location of red (DOX) fluorescence in cells (LO2 cells [1]): located in the cell nuclei | IC50 (LO2 cells [2]): 1.29 ± 0.18 µM | IC50 (U87 cells [3]): 1.65 ± 0.2 µM | location of red (DOX) fluorescence in cells (HepG2 cells [4]; HepG2, 10 μM, 4 h, confocal laser scanning microscopy): located in the cell nuclei | location of red (DOX) fluorescence in cells (A549 cells [5]; A549, 10 μM, 4 h, confocal laser scanning microscopy): located in the cell nuclei | location of red (DOX) fluorescence in cells (U87 cells [6]; U87, 10 μM, 4 h, confocal laser scanning microscopy): located in the cell nuclei

CC[C@@H](C)[C@@H](NC(=O)[C@@H](Cc1ccc(O)cc1)NC(=O)[C@H]1CCCN1C(=O)[C@@H](CCCNC(=N)N)NC(=O)[C@H](N)Cc1c[nH]cn1)C(=O)N[C@H](C)C(=O)N[C@H](Cc1c[nH]cn1)C(=O)N[C@H](CSSCCC(=O)N[C@H]1C[C@H](O[C@H]2C[C@](O)(C(=O)CO)Cc3c(O)c4c(c(O)c32)C(=O)c2c(OC)cccc2C4=O)O[C@@H](C)[C@H]1O)C(=O)O [^DT7-SS-DOX] (H-[dH][dR][dP][dY][dI][dA][dH][dC](X1)-OH)
remaining at 1 h, 100 µM [7, 11]: 72.1% | t1/2 of degradation in 5 mM GSH [7, 12]: 1.93 ± 0.13 h | t1/2 in 5 mM GSH, times longer than that of ^LT7-SS-DOX ([7]; 5 mM GSH): ~8 times | IC50 (HepG2 cells [8]; HepG2, 48 h, CCK-8, mean ± SD (n = 3)): 7.01 ± 1.64 µM | IC50 (A549 cells [9]; A549, 48 h, CCK-8, mean ± SD (n = 3)): 20.6 ± 4.81 µM | IC50 (LO2 cells [2]): > 100 µM | IC50 (U87 cells [3]): 5.7 ± 0.22 µM | fluorescence intensity after pre-treatment with TfR affinity peptide versus without (TfR competitive inhibition assay) (HepG2 cells [4]; HepG2, pre-treated with TfR affinity peptide 100 μM 8 h, then conjugate at equivalent DOX 10 μM for 4 h): lower | fluorescence intensity after pre-treatment with TfR affinity peptide versus without (TfR competitive inhibition assay) (A549 cells [5]; A549, pre-treated with TfR affinity peptide 100 μM 8 h, then conjugate at equivalent DOX 10 μM for 4 h): lower | fluorescence intensity after pre-treatment with TfR affinity peptide versus without (TfR competitive inhibition assay) (U87 cells [6]; U87, pre-treated with TfR affinity peptide 100 μM 8 h, then conjugate at equivalent DOX 10 μM for 4 h): lower | half-life at 100 µM [10]: 8.58 ± 0.85 h

CC[C@H](C)[C@H](NC(=O)[C@H](C)NC(=O)[C@H](Cc1c[nH]cn1)NC(=O)[C@@H](N)CSSCCC(=O)N[C@H]1C[C@H](O[C@H]2C[C@](O)(C(=O)CO)Cc3c(O)c4c(c(O)c32)C(=O)c2c(OC)cccc2C4=O)O[C@@H](C)[C@H]1O)C(=O)N[C@@H](Cc1ccc(O)cc1)C(=O)N1CCC[C@H]1C(=O)N[C@@H](CCCNC(=N)N)C(=O)N[C@@H](Cc1c[nH]cn1)C(=O)O [^LT7-SS-DOX]
remaining at 1 h, 100 µM ([7]; 5 μM GSH in acetonitrile-PBS (3:7, v/v), 100 μM conjugate, 1 h, HPLC, n = 3): 93.7% | conjugate remained undegraded [7, 11]: completely degraded | t1/2 of degradation in 5 mM GSH [7, 12]: 0.26 ± 0.01 h | cell viability (HepG2 cells [8]; HepG2, equal DOX concentration of 20 µM): 73.1% | cell viability (HepG2 cells [8]; HepG2, equal DOX concentration of 40 µM): 61.5% | cell viability (A549 cells [9]; A549, equal DOX concentration of 20 µM): 83.2% | cell viability (A549 cells [9]; A549, equal DOX concentration of 40 µM): 67.2% | cell viability (U87 cells [3]; U87, equal DOX concentration of 20 µM): 95.1% | cell viability (U87 cells [3]; U87, equal DOX concentration of 40 µM): 41.0% | intact conjugate in mouse serum at 1 h ([10]; 80 μL of 1 mM stock + 520 μL water + 200 μL mouse serum, 1 h, HPLC): almost entirely degraded | half-life at 100 µM [10]: 0.37 ± 0.02 h
